Results: patent US9809623B2, “α4β7 peptide monomer and dimer antagonists” (Protagonist Therapeutics, Inc., priority 2014, dated 2017)
Where two headings read alike, the source gives them in different places. Numbered stars: 1 amine (or outer) side, 2 acyl side, 3 side chain; on linkers, the order of the positions; unused ones are H or OH. Bridge positions count the residues as written; N and C are the ends. Square brackets hold non-standard residues; d marks the D form. Peptide text beside a SMILES is read from it. I, II: the chains in the order shown. Phe(4-tBu) = CC(C)(C)c1ccc(C[C@H](N)C(=O)O)cc1; 2Nal = N[C@@H](Cc1ccc2ccccc2c1)C(=O)O; Diglycolyl = O=C(COCC(=O)[*:2])[*:1]; NMeR = CN[C@@H](CCCNC(=N)N)C(=O)O; β3hE = N[C@@H](CCC(=O)O)CC(=O)O; Pen = CC(C)(S)[C@H](N)C(=O)O

Experiments:
[1] = target: T1, α4β7 (Homo sapiens, UniProt P13612+P26010); assay: PBMC Memory T Cell Adhesion Assay, adhesion to MAdCAM-1; type: cell-based; conditions: Table 3-B; range classes; read-out: PBMC IC50
Description: Fresh CD4+/CD45RO+ memory T cells were isolated from human peripheral blood mononuclear cell (PBMC) donors by Aragen Bioscience Inc. (Morgan Hill, Calif.). The assay plate was prepared using IgG Fc capture antibody (donkey anti human) immobilized at 500 ng/well in 50 mM sodium bicarbonate buffer, pH 9.5, ON, 4C onto a Greiner Fluotrac plate (100 ul per well). The plate was rinsed two time with Blocking Buffer (25 mM Tris HCl, pH7.5, 150 mM NaCl, 1.5% BSA, 0.05% Tween), and blocked with Blocking Buffer for 2 hours at 37 C or 5 hours at RT using 200 ul per well. The Blocking Buffer was removed and either MAdCAM-1 or VCAM-1 at 400 ng/well in Blocking Buffer was added and the plate incubated overnight at 4C (100 ul per well). The plate was washed two times with Blocking Buffer, and rinsed once with 200 ul Binding Media (DMEM phenol red free, 10 mM HEPES, 1×Na pyruvate, 1× Glutamine, and supplemented with 1 mM MnCl2 prior to use). To prepare cells, approximately 25 million CD4+/CD45RO+ memory T cells were counted by trypan blue exclusion using a haemocytometer to determine viability and cell count. The cells were transferred to a 50 ml conical tube, and centrifuged at 1200 rpm for 10 minute. The media was aspirated and the cell pellet resuspended in 15 ml Binding Media. The cells were centrifuged again and resuspended in the appropriate amount of Binding Media to be used for assays (50 ul of cells per well at 2× the final density). To each well, and equal volume (50 ul) of test compound was added and the plate was incubated for 1.5 hours at 37 C, 5% CO2. Each well was rinsed 3× with 150 ul per well of Binding Media. […] The plate was incubated at 37 C, 5% CO2, for 45 minutes. The plate was protected from light by using black adhesive seals. Fluorescence intensity was measured using a Molecular Devices Gemini EM Fluorescent Plate Reader (Ex 485/Em530, Bottom Read, Reading Sensitivity=20). IC50 curves are generated using Graph Pad Prism and the curves analyzed using analyzed using a non-linear regression (four parameters) algorithm. The log (concentration) versus RFU (Ex485/Em530) was plotted to determine IC50 values.

[2] = Simulated Intestinal Fluid (SIF) Stability Assay; type: in vitro ADME, porcine; conditions: pig, simulated intestinal fluid (SIF) with 1% porcine pancreatin
Summary of the method: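 Intestinal stability: percent peptide remaining over time, by LC-MS/MS peak-area ratio to internal standard, fitted to first-order decay for half-life. Conditions: 22 μM peptide, 1% pancreatin in pH 6.5 blank FASSIF, 37 °C.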

[3] = target: T1, α4β7; assay: α4β7-MAdCAM Cell Adhesion Assay (RPMI 8866 human cells); type: cell-based; parameters: host or cells: RPMI 8866 human B lymphoblastoid cells; conditions: Table 3-B, Potency (α4β7); range classes; read-out: α4β7 cell (Hu) IC50
Summary of the method: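 Adhesion read-out: MTT absorbance at 570 nm minus no-cell wells, after three washes. Plates coated with rh MAdCAM-1/Fc received peptide dilutions plus 200,000 RPMI 8866 cells in Mn2+ (1 mM)-supplemented DMEM, 0.1% BSA, HEPES pH 7, incubated 30-45 min, 37 °C.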

[4] = target: T2, rh integrin α4β7 (Homo sapiens, UniProt P13612+P26010); assay: α4β7-MAdCAM Competition ELISA; type: binding; conditions: Table 4-B; read-out: ELISA α4β7 IC50
T2 construct: purchased R&D Systems 5397-A30
Summary of the method: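 Competition read-out was A450 after anti-human IgG1-HRP and TMB detection of bound recombinant human MAdCAM-1 (10 nM final). Peptides were serially diluted 3-fold from a final 10 μM and equilibrated 1 h at room temperature on nickel-captured α4β7 (800 ng/well). The buffer was Tris pH 7.6 with 1 mM Mn2+ or Mg2+.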

[5] = Dithiothreitol (DTT) Redox Stability Assay; type: physicochemical; conditions: Table 4-C, t1/2, 0.5 mM DTT
Description: For each peptide tested, the DTT stability assay was conducted by adding 5 μl of a 10 mM peptide stock solution in DMSO to 1 ml of 100 mM Tris-Cl, pH 7.5 (final peptide concentration is 50 μM). At time 0 min, 5 ul of a freshly thawed 100 mM DTT solution was added to the incubation tube containing the peptide, such that the final DTT concentration was 0.5 mM. The reactions were incubated at room temperature. At different time points up to 120 minutes (20 min, 40 min, 80 min, 120 min), 50 ul aliquots were removed, and the reaction was quenched by adding 10 μl of 5M acetic acid. To measure disappearance of the parent peptide, the quenched samples (30 μl) were analyzed by reverse phase HPLC and UV absorbance at 220 nm. The fraction oxidized remaining was graphed versus time, and half-lives were calculated by fitting to a first-order exponential decay equation using Excel.

[6] = target: T3, α4β1 (Homo sapiens, UniProt P05556+P13612, DEL729-798); assay: α4β1-VCAM Competition ELISA; type: binding; conditions: Table 3-B, Selectivity (α4β1); range classes; read-out: α4β1 ELISA IC50
T3 construct: purchased R&D Systems 5668-A4
Summary of the method: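 ELISA plates were coated with VCAM-1 Fc at 400 ng/well. Peptide dilutions (highest final 100 μM) and 60 nM α4β1 were incubated 2 h at 37 °C in pH 7.6 Tris buffer containing 1 mM Mn2+ or Mg2+. Integrin retained on the plate was detected by 9F10 antibody, then HRP secondary, with TMB absorbance at 450 nm.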

[7] = target: α4β1 (Homo sapiens, UniProt P05556+P13612); assay: α4β1-VCAM Cell Adhesion Assay (Jurkat E6.1 human cells); type: cell-based; parameters: host or cells: Jurkat E6.1 human T cells; conditions: Table 3-B, Selectivity (α4β1); range classes; read-out: α4β1 cell IC50
Description: Jurkat E6.1 human cells (Sigma #88042803) were cultured in RPMI 1640 HEPES medium (Invitrogen #22400-089) supplemented with 10% serum (Fetal Bovine Serum, Invitrogen #16140-071), 1 mM sodium pyruvate (Invitrogen #11360-070), 2 mM L-glutamine (Invitrogen #25030-081) and Penicillin-Streptomycin (Invitrogen #15140-122) at 100 units of penicillin and 100 μg of streptomycin per ml. The cells were washed two times in DMEM medium (ATCC #30-2002) supplemented with 0.1% BSA, 10 mM HEPES pH 7 and 1 mM MnCl2. The cells were re-suspended in supplemented DMEM medium at a density of 4×10^6 cells/ml.
A Nunc MaxiSorp plate was coated with rh VCAM-1/CD106 Fc chimera (R&D #862-VC) at 400 ng per well in 50 ul per well in 1×PBS and incubated at 4° C. overnight. The solution was then removed by shaking, blocked with 250 ul per well PBS containing 1% BSA, and incubated at 37° C. for 1 hr. The solution was removed by shaking. Peptides were diluted by serial dilution in a final volume of 50 ul per well (2× concentration). To each well, 50 ul of cells (200,000 cells) were added and the plate was incubated at 37° C., 5% CO2 for 30-45 min to allow cell adhesion. The wells were washed manually three times (100 ul per wash) with supplemented DMEM. After the final wash, 100 ul/well of supplemented DMEM and 10 ul/well of MTT reagent (ATTC cat#30-1010K) were added. The plate was incubated at 37° C., 5% CO2 for 2-3 hrs until a purple precipitate was visible. 100 ul of Detergent Reagent (ATTC cat#30-1010K) was added to each well. The plate was covered from the light, wrapped in Parafilm to prevent evaporation, and left overnight at room temperature in the dark. The plate was shaken for 5 min and the absorbance at 570 nm was measured. To calculate the dose response, the absorbance value of control wells not containing cells was subtracted from each test well.

T1 sequence (P13612 34-1032): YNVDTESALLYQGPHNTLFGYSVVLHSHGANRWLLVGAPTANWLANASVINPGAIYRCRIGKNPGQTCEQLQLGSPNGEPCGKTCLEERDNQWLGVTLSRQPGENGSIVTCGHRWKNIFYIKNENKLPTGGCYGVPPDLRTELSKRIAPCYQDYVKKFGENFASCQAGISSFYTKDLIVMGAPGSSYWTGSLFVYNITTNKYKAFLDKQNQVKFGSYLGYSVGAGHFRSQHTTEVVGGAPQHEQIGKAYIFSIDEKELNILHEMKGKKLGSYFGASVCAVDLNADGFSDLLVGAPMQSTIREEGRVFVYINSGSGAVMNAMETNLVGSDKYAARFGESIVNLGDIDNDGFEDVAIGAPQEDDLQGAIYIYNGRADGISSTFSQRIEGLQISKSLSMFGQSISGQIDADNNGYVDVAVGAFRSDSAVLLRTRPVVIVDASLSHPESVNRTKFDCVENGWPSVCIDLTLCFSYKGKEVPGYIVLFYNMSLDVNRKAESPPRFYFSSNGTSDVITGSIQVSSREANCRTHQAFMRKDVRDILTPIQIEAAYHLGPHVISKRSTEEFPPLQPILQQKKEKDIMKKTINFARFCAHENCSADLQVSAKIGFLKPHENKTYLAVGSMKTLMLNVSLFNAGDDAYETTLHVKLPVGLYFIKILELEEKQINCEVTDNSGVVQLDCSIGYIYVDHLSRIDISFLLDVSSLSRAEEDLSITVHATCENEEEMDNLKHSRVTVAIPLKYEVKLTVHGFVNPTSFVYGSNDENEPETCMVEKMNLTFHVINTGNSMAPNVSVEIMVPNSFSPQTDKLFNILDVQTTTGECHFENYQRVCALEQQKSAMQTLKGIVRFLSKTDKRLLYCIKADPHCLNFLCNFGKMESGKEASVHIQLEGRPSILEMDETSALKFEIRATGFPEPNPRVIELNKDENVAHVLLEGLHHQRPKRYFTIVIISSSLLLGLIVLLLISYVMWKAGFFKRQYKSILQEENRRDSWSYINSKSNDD
T1 sequence (P26010 20-798): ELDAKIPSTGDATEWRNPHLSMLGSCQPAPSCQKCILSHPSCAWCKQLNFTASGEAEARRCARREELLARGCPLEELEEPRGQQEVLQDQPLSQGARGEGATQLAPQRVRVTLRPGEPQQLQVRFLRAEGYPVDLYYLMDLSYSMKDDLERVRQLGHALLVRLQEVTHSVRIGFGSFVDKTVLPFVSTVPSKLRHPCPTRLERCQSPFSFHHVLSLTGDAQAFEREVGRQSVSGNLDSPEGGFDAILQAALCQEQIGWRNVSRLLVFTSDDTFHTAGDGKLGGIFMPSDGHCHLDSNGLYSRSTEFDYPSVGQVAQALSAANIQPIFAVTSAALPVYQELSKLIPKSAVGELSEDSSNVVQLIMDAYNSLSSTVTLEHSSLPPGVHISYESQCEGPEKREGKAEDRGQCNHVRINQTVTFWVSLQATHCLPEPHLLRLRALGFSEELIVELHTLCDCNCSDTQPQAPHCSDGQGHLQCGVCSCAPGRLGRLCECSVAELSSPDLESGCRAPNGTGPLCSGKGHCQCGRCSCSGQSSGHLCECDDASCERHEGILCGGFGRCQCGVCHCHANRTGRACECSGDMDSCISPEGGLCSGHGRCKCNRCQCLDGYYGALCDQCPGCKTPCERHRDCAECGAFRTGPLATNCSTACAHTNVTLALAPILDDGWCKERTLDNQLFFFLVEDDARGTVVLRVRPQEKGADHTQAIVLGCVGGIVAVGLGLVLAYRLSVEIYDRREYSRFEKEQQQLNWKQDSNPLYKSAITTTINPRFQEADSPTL
T3 sequence (P13612 34-977 limits assumed, stated change not applied): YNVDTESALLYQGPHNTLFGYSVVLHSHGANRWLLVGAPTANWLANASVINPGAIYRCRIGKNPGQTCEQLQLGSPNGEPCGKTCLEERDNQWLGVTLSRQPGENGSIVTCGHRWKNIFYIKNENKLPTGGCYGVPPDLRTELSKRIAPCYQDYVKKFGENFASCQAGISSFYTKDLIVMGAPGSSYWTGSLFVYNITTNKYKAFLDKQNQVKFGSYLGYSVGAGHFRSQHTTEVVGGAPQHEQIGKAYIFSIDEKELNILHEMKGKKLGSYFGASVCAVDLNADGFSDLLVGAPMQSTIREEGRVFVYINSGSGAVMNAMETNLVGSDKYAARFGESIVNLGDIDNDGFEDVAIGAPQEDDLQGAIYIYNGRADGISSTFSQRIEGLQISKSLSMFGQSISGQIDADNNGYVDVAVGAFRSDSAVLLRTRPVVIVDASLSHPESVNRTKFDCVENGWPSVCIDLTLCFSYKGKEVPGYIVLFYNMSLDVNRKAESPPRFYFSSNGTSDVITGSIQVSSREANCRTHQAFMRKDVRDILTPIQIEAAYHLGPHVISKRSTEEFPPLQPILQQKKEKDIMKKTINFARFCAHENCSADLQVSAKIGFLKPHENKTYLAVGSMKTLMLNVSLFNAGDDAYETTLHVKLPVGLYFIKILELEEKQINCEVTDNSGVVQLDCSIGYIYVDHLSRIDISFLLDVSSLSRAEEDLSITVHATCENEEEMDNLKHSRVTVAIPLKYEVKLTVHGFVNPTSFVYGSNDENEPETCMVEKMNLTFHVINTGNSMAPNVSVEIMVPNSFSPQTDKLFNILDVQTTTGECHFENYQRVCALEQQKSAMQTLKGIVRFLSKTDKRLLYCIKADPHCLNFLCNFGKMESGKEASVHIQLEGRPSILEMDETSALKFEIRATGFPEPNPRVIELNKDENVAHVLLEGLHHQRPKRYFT
T3 sequence (P05556 21-728 limits assumed, stated change not applied): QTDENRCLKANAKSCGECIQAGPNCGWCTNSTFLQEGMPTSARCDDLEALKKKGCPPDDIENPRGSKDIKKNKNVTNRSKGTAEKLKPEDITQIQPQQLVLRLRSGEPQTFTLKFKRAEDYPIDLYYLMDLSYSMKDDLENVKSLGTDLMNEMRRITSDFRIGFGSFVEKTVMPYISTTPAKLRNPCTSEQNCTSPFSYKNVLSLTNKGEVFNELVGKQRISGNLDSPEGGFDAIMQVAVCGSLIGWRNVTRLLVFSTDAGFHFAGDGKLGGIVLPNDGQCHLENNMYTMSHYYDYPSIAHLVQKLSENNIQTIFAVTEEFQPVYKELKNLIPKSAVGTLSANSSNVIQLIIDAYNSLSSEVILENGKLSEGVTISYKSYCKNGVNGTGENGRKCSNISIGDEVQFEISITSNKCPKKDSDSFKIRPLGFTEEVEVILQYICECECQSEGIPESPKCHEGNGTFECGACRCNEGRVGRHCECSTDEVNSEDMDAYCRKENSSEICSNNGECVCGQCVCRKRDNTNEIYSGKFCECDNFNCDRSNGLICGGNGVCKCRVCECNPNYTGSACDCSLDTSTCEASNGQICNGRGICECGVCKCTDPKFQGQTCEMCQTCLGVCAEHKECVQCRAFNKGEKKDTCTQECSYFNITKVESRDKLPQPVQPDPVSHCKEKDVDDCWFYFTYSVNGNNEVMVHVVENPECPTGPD
T2 sequence (P13612 34-977 limits assumed): as the sequence (P13612 34-977 limits assumed, stated change not applied) above
T2 sequence (P26010 20-723 limits assumed): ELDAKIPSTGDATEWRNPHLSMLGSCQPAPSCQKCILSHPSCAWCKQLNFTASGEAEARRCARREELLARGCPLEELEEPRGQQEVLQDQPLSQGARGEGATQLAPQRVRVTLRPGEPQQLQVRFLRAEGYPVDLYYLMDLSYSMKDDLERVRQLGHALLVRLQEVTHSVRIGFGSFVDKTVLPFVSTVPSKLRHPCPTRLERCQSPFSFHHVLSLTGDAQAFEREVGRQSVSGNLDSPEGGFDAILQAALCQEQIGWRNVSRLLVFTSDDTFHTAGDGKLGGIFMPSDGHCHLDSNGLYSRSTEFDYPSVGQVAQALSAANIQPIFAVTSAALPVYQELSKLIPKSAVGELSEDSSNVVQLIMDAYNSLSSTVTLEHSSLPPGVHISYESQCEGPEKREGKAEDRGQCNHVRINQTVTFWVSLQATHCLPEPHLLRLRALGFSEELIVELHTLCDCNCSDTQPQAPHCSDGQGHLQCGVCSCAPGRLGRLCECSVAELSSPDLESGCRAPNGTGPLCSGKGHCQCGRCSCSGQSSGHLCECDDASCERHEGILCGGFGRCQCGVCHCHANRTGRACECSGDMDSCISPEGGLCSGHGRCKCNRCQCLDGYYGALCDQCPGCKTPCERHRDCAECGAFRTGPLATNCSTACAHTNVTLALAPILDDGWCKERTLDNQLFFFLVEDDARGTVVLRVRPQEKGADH
Chain of α4β1 (Homo sapiens, UniProt P05556+P13612) (P13612 34-1032): as the sequence (P13612 34-1032) above
Chain of α4β1 (Homo sapiens, UniProt P05556+P13612) (P05556 21-798): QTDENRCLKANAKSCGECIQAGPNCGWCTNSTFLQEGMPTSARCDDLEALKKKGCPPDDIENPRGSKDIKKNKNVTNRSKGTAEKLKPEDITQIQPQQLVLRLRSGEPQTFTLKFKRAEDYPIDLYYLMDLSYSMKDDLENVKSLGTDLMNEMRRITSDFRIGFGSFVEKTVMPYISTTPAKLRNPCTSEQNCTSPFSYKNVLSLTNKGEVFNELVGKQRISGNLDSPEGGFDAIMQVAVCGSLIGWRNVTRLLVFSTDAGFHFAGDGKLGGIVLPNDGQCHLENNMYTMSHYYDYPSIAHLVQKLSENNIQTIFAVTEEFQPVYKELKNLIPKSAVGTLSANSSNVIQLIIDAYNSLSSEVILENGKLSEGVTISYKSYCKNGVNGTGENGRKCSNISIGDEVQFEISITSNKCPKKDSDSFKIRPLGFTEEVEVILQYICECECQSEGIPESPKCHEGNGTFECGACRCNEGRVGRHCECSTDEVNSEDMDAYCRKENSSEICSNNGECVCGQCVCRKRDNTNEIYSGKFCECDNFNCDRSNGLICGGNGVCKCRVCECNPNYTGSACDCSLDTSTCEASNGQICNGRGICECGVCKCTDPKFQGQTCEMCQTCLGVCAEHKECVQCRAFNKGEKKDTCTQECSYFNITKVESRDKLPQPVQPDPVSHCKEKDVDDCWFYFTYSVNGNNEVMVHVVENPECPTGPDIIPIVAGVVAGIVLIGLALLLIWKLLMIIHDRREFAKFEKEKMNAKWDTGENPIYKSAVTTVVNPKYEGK

CC(=O)N[C@@H]1C(=O)N(C)[C@@H](CCCNC(=N)N)C(=O)N[C@@H](CO)C(=O)N[C@@H](CC(=O)O)C(=O)N[C@@H]([C@@H](C)O)C(=O)N[C@@H](CC(C)C)C(=O)N[C@H](C(=O)N[C@@H](Cc2ccc(C(C)(C)C)cc2)C(=O)N[C@@H](CCC(=O)O)CC(N)=O)C(C)(C)SSC1(C)C [compound 165] (Ac-[Pen][NMeR]SDTL[Pen][Phe(4-tBu)][β3hE]-NH2; disulfide 1-7)
IC50 [1]: 100 to 500 nM
half-life at 22 μM ([2]; pH 6.5, Table 3-B, > means experiment was stopped at that time and half life was not reached, read-out: Stabilty SIF t1/2): > 180 min
IC50 [3]: 10 to 25 nM

CC(=O)N[C@@H]1C(=O)N[C@@H](CCCNC(=N)N)C(=O)N[C@@H](CO)C(=O)N[C@@H](CC(=O)O)C(=O)N[C@@H]([C@@H](C)O)C(=O)N[C@@H](CC(C)C)C(=O)N[C@H](C(=O)N[C@H](CCCCN)C(N)=O)CSSC1(C)C [compound 206, Ac-Pen-R-S-D-T-L-C-k-NH2] (Ac-[Pen]RSDTLC[dK]-NH2; disulfide 1-7)
IC50 [4]: 97 nM
half-life at 22 μM ([2]; pH 6.5, Table 4-C, t1/2, > means assay stopped at that time, read-out: SIF (porcine) Min): 26 min
DTT Min [5]: 52 min

CC(=O)N[C@@H]1C(=O)N(C)[C@@H](CCCNC(=N)N)C(=O)N[C@@H](CO)C(=O)N[C@@H](CC(=O)O)C(=O)N[C@@H]([C@@H](C)O)C(=O)N[C@@H](CC(C)C)C(=O)N[C@H](C(=O)N[C@@H](Cc2ccc3ccccc3c2)C(=O)N[C@H](CCC(=O)O)C(=O)N[C@H](CCCCNC(=O)COCC(=O)NCCCC[C@@H](NC(=O)[C@@H](CCC(=O)O)NC(=O)[C@H](Cc2ccc3ccccc3c2)NC(=O)[C@H]2NC(=O)[C@H](CC(C)C)NC(=O)[C@H]([C@@H](C)O)NC(=O)[C@H](CC(=O)O)NC(=O)[C@H](CO)NC(=O)[C@H](CCCNC(=N)N)N(C)C(=O)[C@@H](NC(C)=O)C(C)(C)SSC2(C)C)C(N)=O)C(N)=O)C(C)(C)SSC1(C)C [compound 33] (I: Ac-[Pen][NMeR]SDTL[Pen][2Nal][dE][dK]-NH2 / II: Ac-[Pen][NMeR]SDTL[Pen][2Nal][dE][dK]-NH2; disulfide I:1-I:7, II:1-II:7; linker I:10-II:10 via Diglycolyl)
IC50 [6]: 100 to 500 nM
IC50 [7]: > 100000 nM

CC(=O)N[C@@H]1C(=O)N(C)[C@@H](CCCNC(=N)N)C(=O)N[C@@H](CO)C(=O)N[C@@H](CC(=O)O)C(=O)N[C@@H]([C@@H](C)O)C(=O)N[C@@H](CC(C)C)C(=O)N[C@H](C(=O)N[C@@H](Cc2ccc(C(C)(C)C)cc2)C(=O)N[C@@H](CCC(=O)O)CC(=O)N[C@H](CCCCNC(=O)CN(CC(=O)NCCCC[C@@H](NC(=O)C[C@H](CCC(=O)O)NC(=O)[C@H](Cc2ccc(C(C)(C)C)cc2)NC(=O)[C@H]2NC(=O)[C@H](CC(C)C)NC(=O)[C@H]([C@@H](C)O)NC(=O)[C@H](CC(=O)O)NC(=O)[C@H](CO)NC(=O)[C@H](CCCNC(=N)N)N(C)C(=O)[C@@H](NC(C)=O)C(C)(C)SSC2(C)C)C(N)=O)C(=O)CCN)C(N)=O)C(C)(C)SSC1(C)C [compound 166]
IC50 [1]: < 10 nM
IC50 [3]: < 10 nM
